Like-named read-outs stand apart in the source and are kept apart here.
Legend:
Format in all cases: biochemical
PI3Kδ = target: T1, PI3Kδ (Homo sapiens, UniProt O00329); assay: TR-FRET enzymatic activity assay, PI3Kδ
T1 construct: made in house

PI3Kβ = target: T2, PI3Kβ (Homo sapiens, UniProt P42338); assay: TR-FRET enzymatic activity assay, PI3Kβ
T2 construct: made in house

PI3Kγ = target: T3, PI3Kγ (Homo sapiens, UniProt P48736); assay: TR-FRET enzymatic activity assay, PI3Kγ; details: read-out: PI3Kγ IC50
T3 construct: made in house
Experimental: The compounds of formula (I) were characterized for their enzymatic activity against the PI3K isoforms. The activities were measured using a time-resolved fluorescence resonance energy transfer (TR-FRET) assay.

[1] = Table 2, TR-FRET, 2x Km ATP, 30 minutes at 25° C.

T1 sequence (O00329 whole entry): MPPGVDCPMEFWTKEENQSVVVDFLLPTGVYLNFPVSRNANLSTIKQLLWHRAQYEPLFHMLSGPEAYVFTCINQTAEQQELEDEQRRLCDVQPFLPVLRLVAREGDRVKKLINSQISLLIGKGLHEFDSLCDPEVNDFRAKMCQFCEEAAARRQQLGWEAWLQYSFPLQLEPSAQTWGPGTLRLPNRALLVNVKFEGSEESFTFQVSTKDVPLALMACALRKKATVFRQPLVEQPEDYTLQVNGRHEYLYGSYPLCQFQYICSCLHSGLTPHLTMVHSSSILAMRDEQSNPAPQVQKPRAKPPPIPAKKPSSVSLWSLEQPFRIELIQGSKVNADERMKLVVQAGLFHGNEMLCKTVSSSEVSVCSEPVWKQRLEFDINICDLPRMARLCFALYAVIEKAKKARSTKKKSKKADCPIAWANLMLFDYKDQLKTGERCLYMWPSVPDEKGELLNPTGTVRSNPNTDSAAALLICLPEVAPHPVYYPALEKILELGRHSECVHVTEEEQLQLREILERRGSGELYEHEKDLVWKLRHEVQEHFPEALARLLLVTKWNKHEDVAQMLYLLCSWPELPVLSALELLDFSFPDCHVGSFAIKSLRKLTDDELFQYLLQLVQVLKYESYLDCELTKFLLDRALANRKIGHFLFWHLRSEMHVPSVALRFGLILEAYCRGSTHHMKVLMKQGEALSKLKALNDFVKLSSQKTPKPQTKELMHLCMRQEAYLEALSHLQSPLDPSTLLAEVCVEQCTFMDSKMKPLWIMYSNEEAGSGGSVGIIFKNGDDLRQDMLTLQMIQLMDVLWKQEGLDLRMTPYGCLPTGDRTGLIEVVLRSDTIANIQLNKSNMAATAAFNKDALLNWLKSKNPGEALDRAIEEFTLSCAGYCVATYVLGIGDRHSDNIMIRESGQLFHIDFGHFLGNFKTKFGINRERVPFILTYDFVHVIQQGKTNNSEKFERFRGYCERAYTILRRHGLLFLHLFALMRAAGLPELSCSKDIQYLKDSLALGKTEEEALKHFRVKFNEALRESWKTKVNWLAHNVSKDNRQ
T1 sequence (P27986 whole entry partner): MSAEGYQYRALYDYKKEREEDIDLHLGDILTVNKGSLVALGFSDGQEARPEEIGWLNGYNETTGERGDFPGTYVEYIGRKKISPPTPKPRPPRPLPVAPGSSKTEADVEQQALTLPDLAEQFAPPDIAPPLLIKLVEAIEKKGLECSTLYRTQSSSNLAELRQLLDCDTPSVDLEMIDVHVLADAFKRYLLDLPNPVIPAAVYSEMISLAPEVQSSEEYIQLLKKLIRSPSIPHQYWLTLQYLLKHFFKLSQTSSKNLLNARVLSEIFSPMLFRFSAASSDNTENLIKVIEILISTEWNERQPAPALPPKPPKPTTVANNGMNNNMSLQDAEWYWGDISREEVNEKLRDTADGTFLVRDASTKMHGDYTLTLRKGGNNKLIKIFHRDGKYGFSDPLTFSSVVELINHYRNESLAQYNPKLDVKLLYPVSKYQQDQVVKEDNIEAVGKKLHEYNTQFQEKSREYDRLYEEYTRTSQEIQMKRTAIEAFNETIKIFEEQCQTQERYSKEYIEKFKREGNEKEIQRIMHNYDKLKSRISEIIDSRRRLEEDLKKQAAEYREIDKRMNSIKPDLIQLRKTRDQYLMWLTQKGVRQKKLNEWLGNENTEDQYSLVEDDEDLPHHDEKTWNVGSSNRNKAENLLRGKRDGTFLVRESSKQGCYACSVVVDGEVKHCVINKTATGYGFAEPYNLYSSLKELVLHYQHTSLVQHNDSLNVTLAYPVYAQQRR
T2 sequence (P42338 whole entry): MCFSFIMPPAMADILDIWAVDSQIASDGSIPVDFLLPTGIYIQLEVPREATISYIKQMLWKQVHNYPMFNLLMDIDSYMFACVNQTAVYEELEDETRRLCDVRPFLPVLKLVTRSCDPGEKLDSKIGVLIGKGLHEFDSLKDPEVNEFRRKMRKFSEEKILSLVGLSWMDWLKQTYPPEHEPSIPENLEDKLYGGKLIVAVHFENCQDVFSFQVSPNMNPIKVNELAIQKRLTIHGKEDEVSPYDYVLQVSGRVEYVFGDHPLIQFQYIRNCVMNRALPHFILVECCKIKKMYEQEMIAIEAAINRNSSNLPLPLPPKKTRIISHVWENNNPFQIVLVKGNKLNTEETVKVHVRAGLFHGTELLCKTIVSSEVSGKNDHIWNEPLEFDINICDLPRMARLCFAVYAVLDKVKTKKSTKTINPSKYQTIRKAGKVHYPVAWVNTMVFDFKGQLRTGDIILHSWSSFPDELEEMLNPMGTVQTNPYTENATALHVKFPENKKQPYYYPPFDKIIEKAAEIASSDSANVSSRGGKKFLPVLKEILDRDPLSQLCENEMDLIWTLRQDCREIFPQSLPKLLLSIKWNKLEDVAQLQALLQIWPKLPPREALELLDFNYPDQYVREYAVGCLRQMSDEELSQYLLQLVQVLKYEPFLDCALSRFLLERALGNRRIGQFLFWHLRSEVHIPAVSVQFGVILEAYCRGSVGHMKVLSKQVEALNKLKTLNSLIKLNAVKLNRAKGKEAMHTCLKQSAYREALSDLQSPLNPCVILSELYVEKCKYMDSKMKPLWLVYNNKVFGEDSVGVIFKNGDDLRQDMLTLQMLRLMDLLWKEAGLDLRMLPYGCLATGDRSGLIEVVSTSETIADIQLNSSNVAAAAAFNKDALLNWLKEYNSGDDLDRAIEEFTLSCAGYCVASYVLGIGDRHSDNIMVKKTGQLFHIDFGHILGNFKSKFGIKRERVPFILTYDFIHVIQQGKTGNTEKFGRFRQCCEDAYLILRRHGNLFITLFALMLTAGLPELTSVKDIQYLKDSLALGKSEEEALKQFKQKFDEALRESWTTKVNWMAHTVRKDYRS
T2 sequence (P27986 whole entry partner): as the sequence (P27986 whole entry partner) above
T3 sequence (P48736 whole entry): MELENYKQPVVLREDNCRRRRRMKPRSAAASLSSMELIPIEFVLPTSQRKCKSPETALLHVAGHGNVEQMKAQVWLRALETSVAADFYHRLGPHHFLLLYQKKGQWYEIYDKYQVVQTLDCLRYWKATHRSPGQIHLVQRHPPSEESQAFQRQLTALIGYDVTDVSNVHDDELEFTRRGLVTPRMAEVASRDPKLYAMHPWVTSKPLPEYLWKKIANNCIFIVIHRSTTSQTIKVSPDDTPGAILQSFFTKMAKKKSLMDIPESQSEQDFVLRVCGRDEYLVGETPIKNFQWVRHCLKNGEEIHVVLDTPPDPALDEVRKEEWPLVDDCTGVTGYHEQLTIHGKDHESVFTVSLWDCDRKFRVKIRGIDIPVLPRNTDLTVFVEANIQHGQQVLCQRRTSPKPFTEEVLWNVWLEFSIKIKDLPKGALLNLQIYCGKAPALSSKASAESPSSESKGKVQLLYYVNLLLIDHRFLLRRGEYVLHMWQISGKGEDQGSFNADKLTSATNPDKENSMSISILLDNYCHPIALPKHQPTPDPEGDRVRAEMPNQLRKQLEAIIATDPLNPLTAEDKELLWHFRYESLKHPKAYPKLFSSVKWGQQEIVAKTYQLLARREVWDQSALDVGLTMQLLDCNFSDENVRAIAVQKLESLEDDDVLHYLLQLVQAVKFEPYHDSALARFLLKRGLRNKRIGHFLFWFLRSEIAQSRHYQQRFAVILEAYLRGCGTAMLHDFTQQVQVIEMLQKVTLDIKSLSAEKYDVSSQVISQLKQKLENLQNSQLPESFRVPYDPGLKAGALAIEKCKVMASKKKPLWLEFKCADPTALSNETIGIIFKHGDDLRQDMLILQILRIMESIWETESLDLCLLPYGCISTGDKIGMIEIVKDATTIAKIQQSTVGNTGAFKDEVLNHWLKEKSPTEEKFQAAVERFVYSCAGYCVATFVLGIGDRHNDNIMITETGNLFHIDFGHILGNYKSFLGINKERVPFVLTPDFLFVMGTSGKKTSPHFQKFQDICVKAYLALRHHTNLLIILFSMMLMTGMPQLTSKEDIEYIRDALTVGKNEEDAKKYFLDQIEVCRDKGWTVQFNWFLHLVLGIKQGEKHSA

Row | IC50 (PI3Kδ; [1]) [nM] | IC50 (PI3Kβ; [1]) [nM] | IC50 (PI3Kδ; Table 2a, same assay) [nM] | IC50 (PI3Kβ; Table 2a, same assay) [nM] | IC50 (PI3Kγ; Table 2a, same assay) [nM] | SMILES | further results
1 | 6 | 10 | – | – | – | C[C@H](Nc1nc(N)nc2[nH]nc(Br)c12)c1nc2cccc(Cl)c2c(=O)n1-c1cc[nH]n1 [Compound 92, (S)-2-(1-((6-amino-3-bromo-1H-pyrazolo[3,4-d]pyrimidin-4-yl)amino)ethyl)-5-chloro-3-(1H-pyrazol-3-yl)quinazolin-4(3H)-one] | IC50 (PI3Kγ; [1]): 3800 nM
2 | – | – | 4 | 2 | 2000 | N#Cc1c(N)nc(N)nc1N[C@H](c1nc2cccc(C(F)F)c2c(=O)n1-c1cc[nH]n1)C1CCC1 [Compound 131, (S)-2,4-diamino-6-((cyclobutyl(5-(difluoromethyl)-4-oxo-3-(1H-pyrazol-3-yl)-3,4-dihydroquinazolin-2-yl)methyl)amino)pyrimidine-5-carbonitrile] | –
3 | – | – | 9 | 25 | 840 | C[C@H](Nc1nc(N)nc(C(F)F)c1C#N)c1nc2c(Cl)cc(F)cc2c(=O)n1-c1cn[nH]c1 [Compound 183, (S)-2-amino-4-((1-(8-chloro-6-fluoro-4-oxo-3-(1H-pyrazol-4-yl)-3,4-dihydroquinazolin-2-yl)ethyl)amino)-6-(difluoromethyl)pyrimidine-5-carbonitrile] | –
4 | – | – | 0.7 | 2 | 190 | C[C@H](Nc1nc(N)nc(N)c1C#N)c1nc2cccc(Cl)c2c(=O)n1-c1c[nH]cn1 [Compound 288, (S)-2,4-diamino-6-((1-(5-chloro-3-(1H-imidazol-4-yl)-4-oxo-3,4-dihydroquinazolin-2-yl)ethyl)amino)pyrimidine-5-carbonitrile] | –
5 | – | – | 44 | 52 | > 10000 | Nc1nc(N)c(Cl)c(N[C@H](c2nc3c(Cl)ccc(F)c3c(=O)n2-c2cc[nH]n2)C2CC2)n1 [Compound 148, (S)-8-chloro-2-(cyclopropyl((2,6-diamino-5-chloropyrimidin-4-yl)amino)methyl)-5-fluoro-3-(1H-pyrazol-3-yl)quinazolin-4(3H)-one] | –
6 | – | – | 30 | 150 | > 10000 | CCC[C@H](Nc1nc(N)nc(N)c1Cl)c1nc2c(Cl)ccc(Cl)c2c(=O)n1-c1cc[nH]n1 [Compound 255, (S)-5,8-dichloro-2-(1-((2,6-diamino-5-chloropyrimidin-4-yl)amino)butyl)-3-(1H-pyrazol-3-yl)quinazolin-4(3H)-one] | –
7 | – | – | 0.2 | 0.6 | 360 | Cc1ccc(Cl)c2nc([C@H](C)Nc3nc(N)nc(N)c3C#N)n(-c3cc[nH]n3)c(=O)c12 [Compound 222, (S)-2,4-diamino-6-((1-(8-chloro-5-methyl-4-oxo-3-(1H-pyrazol-3-yl)-3,4-dihydroquinazolin-2-yl)ethyl)amino)pyrimidine-5-carbonitrile] | –
8 | 18 | 95 | – | – | – | CC[C@H](Nc1ncnc2scnc12)c1nc2cccc(C#N)c2c(=O)n1-c1cc[nH]n1 [Compound 73, (S)-4-oxo-3-(1H-pyrazol-3-yl)-2-(1-(thiazolo[5,4-d]pyrimidin-7-ylamino)propyl)-3,4-dihydroquinazoline-5-carbonitrile] | IC50 (PI3Kγ): > 10000 nM
9 | 200 | 640 | – | – | – | CC[C@H](NC(=O)c1nccnc1N)c1nc2c(Cl)ccc(Cl)c2c(=O)n1-c1cn[nH]c1 [Compound 122, (S)-3-amino-N-(1-(5,8-dichloro-4-oxo-3-(1H-pyrazol-4-yl)-3,4-dihydroquinazolin-2-yl)propyl)pyrazine-2-carboxamide] | IC50 (PI3Kγ): > 10000 nM
10 | – | – | 36 | 320 | > 10000 | Cc1c[nH]nc1-n1c([C@@H](Nc2nc(N)nc(Cl)c2C#N)C2CC2)nc2c(C#N)cccc2c1=O [Compound 246, (S)-2-(((2-amino-6-chloro-5-cyanopyrimidin-4-yl)amino)(cyclopropyl)methyl)-3-(4-methyl-1H-pyrazol-3-yl)-4-oxo-3,4-dihydroquinazoline-8-carbonitrile] | –
11 | – | – | 1 | 6 | 4200 | Nc1ncnc(N[C@H](c2nc3cccc(Cl)c3c(=O)n2-c2cc[nH]n2)C2CC2)c1Cl [Compound 165, (S)-2-(((6-amino-5-chloropyrimidin-4-yl)amino)(cyclopropyl)methyl)-5-chloro-3-(1H-pyrazol-3-yl)quinazolin-4(3H)-one] | –
12 | – | – | 25 | 94 | – | CC(C)[C@H](Nc1nc(N)nc(N)c1Cl)c1nc2cccc(Cl)c2c(=O)n1-c1cc[nH]n1 [Compound 146, (S)-5-chloro-2-(1-((2,6-diamino-5-chloropyrimidin-4-yl)amino)-2-methylpropyl)-3-(1H-pyrazol-3-yl)quinazolin-4(3H)-one] | –
13 | – | – | 21 | 49 | – | Nc1nc(N)c(Cl)c(N[C@H](c2nc3cccc(Cl)c3c(=O)n2-c2cc[nH]n2)C2CCC2)n1 [Compound 127, (S)-5-chloro-2-(cyclobutyl((2,6-diamino-5-chloropyrimidin-4-yl)amino)methyl)-3-(1H-pyrazol-3-yl)quinazolin-4(3H)-one] | –
14 | – | – | – | – | – | C[C@H](Nc1nc(N)nc(N)c1C#N)c1nc2cccc(Cl)c2c(=O)n1-c1ccccc1 [Compound X, (S)-2,4-diamino-6-((1-(5-chloro-4-oxo-3-phenyl-3,4-dihydroquinazolin-2-yl)ethyl)amino)pyrimidine-5-carbonitrile, reference compound] | PI3Kγ/PI3Kβ ratio (PI3Kβ; ratio of IC50 values): 0.6
15 | – | – | 220 | 1600 | – | Cc1c[nH]nc1-n1c([C@@H](NC2=NC(N)=NC3=NN=C(Br)C32)C2CC2)nc2cccc(Cl)c2c1=O (stereo partly shown) [Compound 242, 2-((1 S)-((6-amino-3-bromo-3aH-pyrazolo[3,4-d]pyrimidin-4-yl)amino)(cyclopropyl)methyl)-5-chloro-3-(4-methyl-1H-pyrazol-3-yl)quinazolin-4(3H)-one] | –
16 | 7 | 84 | – | – | – | CC(C)Cc1cc(-n2c([C@H](C)Nc3ncnc(N)c3C#N)nc3cccc(Cl)c3c2=O)n[nH]1 [Compound 4, (S)-4-amino-6-((1-(5-chloro-3-(5-isobutyl-1H-pyrazol-3-yl)-4-oxo-3,4-dihydroquinazolin-2-yl)ethyl)amino)pyrimidine-5-carbonitrile] | –
17 | – | – | – | – | – | C[C@H](Nc1nc(N)nc(N)c1C#N)c1nc2cccc(Cl)c2c(=O)n1-c1ccccc1 [(S)-2,4-diamino-6-((1-(5-chloro-4-oxo-3-phenyl-3,4-dihydroquinazolin-2-yl)ethyl)amino)pyrimidine-5-carbonitrile] | PI3Kγ/PI3Kβ IC50 ratio (PI3Kβ; ratio of IC50 values, text b271): less than 1 fold

Row | SMILES | IC50 (PI3Kδ; [1]) [nM] | IC50 (PI3Kβ; [1]) [nM] | IC50 (PI3Kδ; Table 2a, same assay) [nM] | IC50 (PI3Kβ; Table 2a, same assay) [nM] | IC50 (PI3Kγ; Table 2a, same assay) [nM] | further results
18 | C[C@H](Nc1nc(N)nc(N)c1Cl)c1nc2c(Cl)ccc(Cl)c2c(=O)n1-c1cc[nH]n1 [Compound 69, (S)-5,8-dichloro-2-(1-((2,6-diamino-5-chloropyrimidin-4-yl)amino)ethyl)-3-(1H-pyrazol-3-yl)quinazolin-4(3H)-one] | 6 | 13 | – | – | – | IC50 (PI3Kγ): > 10000 nM
19 | CC[C@H](Nc1nc(N)nc(N)c1C#N)c1nc2cccc(Cl)c2c(=O)n1-c1cc[nH]n1 [Compound 1, (S)-2,4-diamino-6-((1-(5-chloro-4-oxo-3-(1H-pyrazol-3-yl)-3,4-dihydroquinazolin-2-yl)propyl)amino)pyrimidine-5-carbonitrile] | 0.6 | 1 | – | – | – | IC50 (PI3Kγ; [1]): 330 nM
20 | C[C@H](Nc1ncnc2ccoc12)c1nc2cccc(Cl)c2c(=O)n1-c1cc[nH]n1 [Compound 61, (S)-5-chloro-2-(1-(furo[3,2-d]pyrimidin-4-ylamino)ethyl)-3-(1H-pyrazol-3-yl)quinazolin-4(3H)-one] | 3 | 20 | – | – | – | IC50 (PI3Kγ; [1]): 8100 nM

Reference: US10308639B2, “Phosphatidylinositol 3-kinase inhibitors” (Gilead Sciences, Inc., priority 2014, dated 2019)
